Where a name gives a salt, the structure may show the parent alone.
Key:
[1] = typical duration of action (period of therapeutic effect) of an immediate release dose, from product labeling; type: in vivo; details: for ATDAIRD (average therapeutic duration of action of an effective immediate release dose): average of typical duration range; for ATDAIRD: as restated, unit not given
From the text: As used herein, “ATDAIRD” shall mean the average therapeutic duration of action of an effective immediate release dose” of a particular active ingredient. […] The therapeutic duration of action of a particular active ingredient can readily be determined from the dosing instructions in the labeling for immediate release products containing that particular active ingredient.

[2] = background statement; typically administered every 2 to 4 hours; cited from earlier work

Compound | ATDAIRD (average therapeutic duration of action of an effective immediate release dose) [1] [h] | therapeutically effective plasma concentration (duration) [2] | ATDAIRD [1]
CC(C)Cc1ccc(C(C)C(=O)O)cc1 (stereo not shown) [ibuprofen, 2-(4-isobutylphenyl)-propionic acid] | 5 | – | –
CC(C(=O)O)c1cccc(C(=O)c2ccccc2)c1 (stereo not shown) [ketoprofen] | 5 | – | –
COc1ccc2cc([C@H](C)C(=O)O)ccc2c1 [naproxen] | 10 | – | –
CNC[C@H](O)c1cccc(O)c1 [phenylephrine hydrochloride] | – | about 2.5 hours | –
CNC[C@H](O)c1cccc(O)c1 [phenylephrine, benzynemethanol, 3-hydroxy-α-[(methylamino)methyl]] | 3 | – | about 3
CN[C@@H](C)[C@@H](O)c1ccccc1 [psuedoephedrine] | – | – | about 3

— patent US9833510B2, “Modified release solid or semi-solid dosage forms” (Johnson & Johnson Consumer Inc., priority 2007, dated 2017)
